Structures can show the parent of a compound that is named as a salt. Where two headings read alike, the source gives them in different places.
Experiments:
[1] = system: HCV replicon GT1b RNA in Huh-7 cells; experiment: Quantitative RT-PCR of HCV replicon RNA levels; assay type: cell-based, hepatitis C virus (HCV)
Protocol: In order to directly determine HCV replicon RNA levels in HCV replicon bearing Huh-7 cells the cells were seeded at 100,000 cellswell, in 6 well tissue culture plates, and allowed to attach overnight before compound addition at a final DMSO concentration of 0.1%. At 72 hours post compound addition RNA was extracted from DMSO-only treated and compound-treated cells using a Qiagen RNeasy kit (Qiagen) according to the manufacturer's instructions. All samples were then normalized for total RNA concentration. […] Briefly, sample RNA (2 ng) was combined with the NS5A primers listed above at a final concentration of 1 μM and an equal volume of 2× Quantitect SYBR Green RT-PCR Master Mix. […] Amplification of HPRT RNA for each sample was determined in separate reactions. The amount of input RNA from the untreated control sample was varied in order to generate a standard curve by which the relative levels of replicon RNA from each treated sample could be expressed as fold changes relative to the untreated control sample. […] Values were calculated from the average of three independent experiments, where log10 [sequence] levels at day 3, 7, 10, and 14 post compound treatment were subtracted from log10 [sequence] […]

[2] = system: HCV subgenomic replicon in Huh-7 cells; experiment: Replicon assay, EC50 luciferase readout; assay type: cell-based, hepatitis C virus (HCV); settings: Hepatitis C virus
Method in brief: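 Huh-7 cells carrying a subgenomic HCV replicon (NS3-NS5b, firefly luciferase-neo fusion) were treated with compound for 72 h at 37°C, 5% CO2. EC50 derived from Bright-Glo luciferase signal as a proxy for HCV RNA; cell viability measured in parallel by Alamar blue.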

[3] = target: T1, HCV NS3 protease (full length NS34a) (Hepatitis C virus genotype 1b, UniProt P26663); experiment: HCV NS3 protease assay (FRET, full length NS34a); assay type: biochemical
T1 construct: The protease activity of the full length NS34a was measured using a FRET-based assay; made in house
T1 sequence (P26663 1658-1711): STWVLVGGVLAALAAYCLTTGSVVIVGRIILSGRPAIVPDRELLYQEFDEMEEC
T1 sequence (P26663 1027-1657): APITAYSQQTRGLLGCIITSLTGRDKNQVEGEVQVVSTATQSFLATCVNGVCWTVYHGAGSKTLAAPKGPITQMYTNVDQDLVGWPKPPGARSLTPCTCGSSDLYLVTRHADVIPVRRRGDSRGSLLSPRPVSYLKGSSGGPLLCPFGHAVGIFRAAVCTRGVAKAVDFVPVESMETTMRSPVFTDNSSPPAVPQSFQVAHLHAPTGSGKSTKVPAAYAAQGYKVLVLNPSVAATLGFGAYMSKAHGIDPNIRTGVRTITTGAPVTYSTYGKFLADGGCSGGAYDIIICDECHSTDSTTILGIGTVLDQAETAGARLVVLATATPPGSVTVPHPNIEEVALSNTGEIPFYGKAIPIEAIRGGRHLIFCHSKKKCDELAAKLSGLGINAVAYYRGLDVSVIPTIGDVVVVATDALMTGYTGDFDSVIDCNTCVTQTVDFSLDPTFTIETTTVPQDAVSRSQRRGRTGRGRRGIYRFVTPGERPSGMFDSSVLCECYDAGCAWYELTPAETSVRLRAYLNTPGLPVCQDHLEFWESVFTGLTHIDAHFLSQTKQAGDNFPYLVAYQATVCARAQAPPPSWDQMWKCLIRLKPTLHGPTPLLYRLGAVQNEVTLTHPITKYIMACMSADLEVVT
Method in brief: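 FRET readout over 30 minutes at room temperature, with IC50 fitted to initial rates from replicate curves. Enzyme was full-length NS34a; substrate a peptide from the NS4AB cleavage site labelled with QXL520 and 5-FAMsp; buffer 50 mM Tris pH8 containing 20 mM DTT, 1% CHAPS, 10% glycerol and 5% DMSO.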

[4] = Huh-7, 72 h, Huh-7 replicon cells, 72 h, single value, or second value of a pair x:y, read-out: Activity EC50 (μM) (EC50 luciferase readout)
[5] = protease activity of full length NS34a, FRET peptide substrate, read-out: Activity IC50
[6] = IC50 values of 10-150 μM against the protease activity of the full length NS34a, or at least 40% inhibition of protease activity at a concentration of 100 μM

SMILES | EC50 [2, 4] [µM] | IC50 [3, 5] [µM] | further results
CC[C@@H](N[C@@H](C)CC(N)=O)c1ccc(Cl)c(Oc2ccccc2)c1F (single isomer, unassigned) [Example 88] | 0.4 | 0.1 | decline in HCV replicon RNA over time ([1]; 10x EC50, day 3, 7, 10 and 14, compound alone): comparable over time with Danoprevir and VX-222; decline in HCV replicon RNA, combination ([1]; 10x EC50, in combination with either Danoprevir or VX-222): largest declines; EC50 ([2]; Huh-7, replicon assay, set in line with previous observations, read-out: pre-determined EC50 set for the combination experiments): 0.3 µM
CC[C@@H](N[C@H](CC(N)=O)C1CC1)c1ccc(Cl)c(Oc2ccccc2)c1F [Example 165] | > 10 | – | IC50 [3, 6]: 10 to 150 µM
C[C@@H](CO)N[C@@H](CC1CCNCC1)c1ccc(F)c(Oc2ccccc2)c1F [Example 96] | 0.24 | 6.7 | –
CC[C@@H](N[C@H](C)CC(N)=O)c1ccc(Cl)c(Oc2ccc(N)c(C)c2)c1F [Example 128] | > 10 | 1.2 | –
CC[C@@H](N[C@@H](C)CC(N)=O)c1ccc(Cl)c(Oc2ccc(N)c(Cl)c2)c1F [Example 266C, (S)-3-{(R)-1-[3-(4-Amino-3-chloro-phenoxy)-4-chloro-2-fluoro-phenyl]-propyl-amino}-butyramide.dihydrochloride] | 0.023 | 0.087 | –
CCC(NCc1cc[nH]n1)c1ccc(F)c(Oc2ccccc2)c1F (stereo not shown) [Example 21] | > 30 | – | IC50 [3, 6]: 10 to 150 µM
CC[C@@H](N)c1ccc(Cl)c(Oc2ccc(N)c(C)c2)c1F [Example 112, 4-[3-((R)-1-Amino-propyl)-6-chloro-2-fluoro-phenoxy]-2-methyl-phenylamine.dihydrochloride] | > 10 | 0.16 | –
CC[C@H](N)c1ccc(F)c(Oc2ccccc2)c1F [Example 52] | 9.4 | 1.8 | –
C[C@H](CC(=O)NCCN)NCc1ccc(Cl)c(Oc2ccccc2)c1F [Example 107, (R)—N-(2-Amino-ethyl)-3-(4-chloro-2-fluoro-3-phenoxy-benzylamino)-butyramide.dihydrochloride] | > 10 | 0.22 | –
N[C@H]1CC[C@H](NCc2ccc(F)c(Oc3ccccc3)c2Cl)CC1 [Example 290] | 10 | 3.4 | –
CC[C@@H](N[C@H](C)CC(N)=O)c1ccc(Cl)c(Oc2ccc(CC#N)cc2)c1F [Example 212] | – | 0.82 | EC50 ([2]; Huh-7, 72 h, read-out: Activity EC50 (μM) (EC50 luciferase readout), Huh-7 replicon cells, 72 h, single value, or second value of a pair x:y): > 10 µM
CC[C@@H](N[C@@H](C)CC(N)=O)c1ccc(Cl)c(Oc2ccc(N)c(F)c2)c1F [Example 333] | 0.057 | 0.061 | –
Cc1cc(Oc2c(F)ccc(CN[C@H]3CC[C@H](N)CC3)c2F)ccc1N [Example 287] | 6.5 | 0.44 | –
CC[C@H](N[C@H](C)CC(N)=O)c1ccc(Cl)c(Oc2ccccc2)c1Cl [Example 325] | > 10 | – | IC50 [3, 6]: 10 to 150 µM

— US20140288040A1, “SUBSTITUTED BENZYLAMINE COMPOUNDS, THEIR USE IN MEDICINE, AND IN PARTICULAR THE TREATMENT OF HEPATITIS C VIRUS (HCV) INFECTION” (ASTEX THERAPEUTICS LIMITED, priority 2011, published 2014)
